Patent publication US10328077B2 (CELGENE CORPORATION, priority 2016, dated 2019)
Read-outs that look alike come from different tables or passages of the source.

Assays:
[1] = Excretion in bile duct cannulated rats; assay type: in vivo; conditions: IV, 24-hour period
MKL-1 hMCC xenograft = assay type: in vivo; conditions: 5 mg/kg PO 5 on/2 off
CYP3A4 = CYP3A4 (Homo sapiens (Human), UniProt P08684); test: CYP reaction phenotyping with recombinant human CYP enzymes; assay type: in vitro ADME
Excerpt: The role of non-CYP enzymes in the metabolism of Compound A is yet to be ascertained.

[2] = system: Salmonella typhimurium TA98 and TA100 strains; test: Bacterial reverse mutation assay; conditions: up to 500 μg/mL, presence and absence of S9
LXFS 615 SCLC PDX model = assay type: in vivo, mice; conditions: female, NMRI-Foxnlnu, mouse, oral; 5 mg base/kg, plasma after final dose; read-out: AUC0-24
[3] = system: LXFS 615 SCLC patient-derived xenograft; test: LXFS 615 SCLC PDX model; assay type: in vivo, mice
[4] = system: GA0087 gastric NEC patient-derived xenograft; assay type: in vivo
CYP2C19 = CYP2C19 (Homo sapiens (Human), UniProt P33261); test: CYP inhibition in pooled human liver microsomes, CYP2C19; assay type: in vitro ADME
[5] = Hemodynamic and ECG parameters in anesthetized guinea pigs; assay type: in vivo, Dunkin Hartley guinea pigs; conditions: for concentration at 10 min: male, Dunkin Hartley, plasma, read-out: mean plasma concentration at end of infusion
Excerpt: Animals were monitored throughout the experiment.

NCI-H1417 SCLC xenograft = NCI-H1417 SCLC xenograft efficacy, athymic nude mice; assay type: in vivo; conditions: for % TGI: Day 65; for mean body weight gain: end of study
[6] = system: LU2514 SCLC patient-derived xenograft; test: LU2514 HuPrime SCLC PDX model; assay type: in vivo, mice
Procedure: Tumor growth inhibition analysis was performed on Day 28 post treatment, the last day of dosing.

[7] = 4-week toxicity study with 4-week recovery in mice (incl. TK)
[8] = Day 1, 5 mg base/kg/dose oral, 5 days on/2 days off, F
[9] = Day 1, 5 mg base/kg/dose oral, 5 days on/2 days off, M
[10] = Day 1, 15 mg base/kg/dose oral, 5 days on/2 days off, M
[11] = Day 1, 25 mg base/kg/dose oral, QODx3/week, F
[12] = Day 1, 25 mg base/kg/dose oral, QODx3/week, M
[13] = Day 1, 45 mg base/kg/dose oral, 5 days on/2 days off, F
[14] = Day 1, 45 mg base/kg/dose oral, 5 days on/2 days off, M
[15] = Day 26, 5 mg base/kg/dose oral, 5 days on/2 days off, F
[16] = Day 26, 5 mg base/kg/dose oral, 5 days on/2 days off, M
[17] = Day 26, 15 mg base/kg/dose oral, 5 days on/2 days off, F
[18] = Day 26, 25 mg base/kg/dose oral, QODx3/week, F
[19] = Day 26, 25 mg base/kg/dose oral, QODx3/week, M
[20] = Day 26, 45 mg base/kg/dose oral, 5 days on/2 days off, F
[21] = Day 26, 45 mg base/kg/dose oral, 5 days on/2 days off, M

CYP3A4, sequence (P08684 whole entry): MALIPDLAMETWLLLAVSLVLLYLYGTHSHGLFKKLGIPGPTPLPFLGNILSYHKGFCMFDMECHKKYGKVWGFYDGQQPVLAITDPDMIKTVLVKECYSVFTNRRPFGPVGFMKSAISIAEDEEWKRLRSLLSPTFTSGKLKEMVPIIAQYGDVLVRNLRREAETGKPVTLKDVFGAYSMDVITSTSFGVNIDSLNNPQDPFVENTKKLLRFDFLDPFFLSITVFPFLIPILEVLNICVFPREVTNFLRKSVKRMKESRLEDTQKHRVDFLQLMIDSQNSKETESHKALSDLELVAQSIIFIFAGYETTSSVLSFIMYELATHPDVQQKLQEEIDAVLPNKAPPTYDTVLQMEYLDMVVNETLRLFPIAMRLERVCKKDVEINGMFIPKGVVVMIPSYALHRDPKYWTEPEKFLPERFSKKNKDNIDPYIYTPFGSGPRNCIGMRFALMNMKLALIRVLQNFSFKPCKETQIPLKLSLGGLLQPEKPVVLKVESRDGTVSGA
CYP2C19, sequence (P33261 whole entry, the tested form may be a part): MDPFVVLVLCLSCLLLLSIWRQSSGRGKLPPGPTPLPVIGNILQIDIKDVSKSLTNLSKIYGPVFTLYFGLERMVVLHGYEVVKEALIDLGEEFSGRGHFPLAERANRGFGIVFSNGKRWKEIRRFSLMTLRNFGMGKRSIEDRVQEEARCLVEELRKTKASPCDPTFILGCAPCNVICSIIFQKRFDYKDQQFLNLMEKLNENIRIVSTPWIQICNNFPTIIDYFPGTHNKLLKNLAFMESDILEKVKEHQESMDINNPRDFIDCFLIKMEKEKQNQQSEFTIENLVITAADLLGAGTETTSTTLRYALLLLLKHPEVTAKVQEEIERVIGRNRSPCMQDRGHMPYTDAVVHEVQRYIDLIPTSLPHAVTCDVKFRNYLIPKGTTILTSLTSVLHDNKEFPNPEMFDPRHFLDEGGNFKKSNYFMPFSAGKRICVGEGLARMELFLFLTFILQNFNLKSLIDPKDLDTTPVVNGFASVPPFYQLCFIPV

For `COc1ccc(-c2c(-c3ccc(C#N)c(F)c3)nc(N3CCC(N)CC3)n(C)c2=O)cc1F` [Compound A, 4-[2-(4-amino-piperidin-1-yl)-5-(3-fluoro-4-methoxy-phenyl)-1-methyl-6-oxo-1,6-dihydro-pyrimidin-4-yl]-2-fluoro-benzonitrile], the “dose excreted intact (urine + bile)” value [1] was 26.3 % of the dose, the “dose excreted intact in bile” value [1] was 17.8 % of dose and the “dose excreted intact in urine” value [1] was 8.5 % of dose. The “Median Tumor Volume Day 15” value (MKL-1 hMCC xenograft) was 880 mm^3, the “Median Tumor Volume Diff (Day 15 - Day -3)” value (MKL-1 hMCC xenograft) was 815 mm^3 and the “role of CYP3A4 in metabolism” value (CYP3A4) was “predominantly responsible for the oxidative metabolism”. The mutagenicity [2] was “negative for mutagenicity”, the AUC(0-t) (LXFS 615 SCLC PDX model) was 1620 ng·h/mL and the “mean body weight loss” value ([3]; 5 mg base/kg) was less than 1%. The TGI ([3]; 5 mg base/kg oral for 30 days) was 78%, the “Median Tumor Volume Day 53” value ([4]; 5 mg/kg PO QD x 53) was 673.2 mm^3 and the “Median Tumor Volume Diff (Day 53 - Day 0)” value ([4]; 5 mg/kg PO QD x 53) was 863.3 mm^3. For the same compound, the tolerability ([4]; 1.5 and 5 mg/kg oral QD) was “acceptably tolerated”, the IC50 (CYP2C19) was greater than 50 µM and the “maximum increase of QTcB interval vs vehicle” value ([5]; 10 mg base/kg IV) was “approximately 9%”. The “maximum increase of QTcB interval vs vehicle” value ([5]; 15 mg base/kg IV) was roughly 13%, the “maximum increase of QTcB interval vs vehicle” value ([5]; 20 mg base/kg IV) was roughly 16% and the “maximum suppression of HR vs vehicle” value ([5]; 20 mg base/kg IV, 9 minutes into infusion) was 19%. The “NOAEL for hemodynamic and ECG endpoints” value ([5]; IV) was 10 mg base/kg, the “HR decrease at end of monitoring period” value ([5]; after 20 mg base/kg IV) was 18% and the “QTcB interval increase at end of monitoring period” value ([5]; guinea pig, in vivo) was 10%. It also gave a concentration at 10 min ([5]; guinea pig, 5 mg base/kg IV) of 1170 ng/mL, a concentration at 10 min ([5]; guinea pig, 10 mg base/kg IV) of 2360 ng/mL and a concentration at 10 min ([5]; guinea pig, 15 mg base/kg IV) of 4270 ng/mL. For the same compound, the concentration at 10 min ([5]; guinea pig, 20 mg base/kg IV) was 6710 ng/mL, the “Median Tumor Volume Day 65” value (NCI-H1417 SCLC xenograft; 2.5 mg base/kg PO QDx65) was 39.3 mm^3 and the “Median Tumor Volume Diff. (Day 65 - Day 0)” value (NCI-H1417 SCLC xenograft; 2.5 mg base/kg PO QDx65) was −69.9 mm^3. The “% TGI” value (NCI-H1417 SCLC xenograft; 2.5 mg base/kg PO QDx65) was 159%, the TGI (NCI-H1417 SCLC xenograft; 2.5 mg base/kg oral QD×65, Day 65) was 159% and the “mean body weight gain” value (NCI-H1417 SCLC xenograft; 2.5 mg base/kg) was 1%. For the same compound, the “Median Tumor Volume Day 65” value (NCI-H1417 SCLC xenograft; 5 mg base/kg PO QDx65) was 15.9 mm^3, the “Median Tumor Volume Diff. (Day 65 - Day 0)” value (NCI-H1417 SCLC xenograft; 5 mg base/kg PO QDx65) was −92.3 mm^3 and the “% TGI” value (NCI-H1417 SCLC xenograft; 5 mg base/kg PO QDx65) was 178%. For the same compound, the TGI (NCI-H1417 SCLC xenograft; 5 mg base/kg oral QD×65, Day 65) was 178%, the “mean body weight gain” value (NCI-H1417 SCLC xenograft; 5 mg base/kg) was 7.5% and the “tumors regressed in net volume” value (NCI-H1417 SCLC xenograft; 2.5 and 5 mg base/kg groups together) was 14 out of 15. The “Median Tumor Volume Day 28” value ([6]; 5 mg base/kg PO QDx28) was 1244.8 mm^3, the “Median Tumor Volume Diff. (Day 28 - Day 1)” value ([6]; 5 mg base/kg PO QDx28) was 1071.6 mm^3 and the “Median Tumor Volume Day 28” value ([6]; 10 mg base/kg PO QDx28) was 906.0 mm^3. The “Median Tumor Volume Diff. (Day 28 - Day 1)” value ([6]; 10 mg base/kg PO QDx28) was 732.3 mm^3, the “mean body weight loss” value ([6]; both LU2514 studies) was less than 10% and the AUC0-24 [7, 8] was 1500 ng·h/mL. For the same compound, the Cmax [7, 8] was 201 ng/mL, the AUC0-24 [7, 9] was 2270 ng·h/mL and the Cmax [7, 9] was 230 ng/mL. For the same compound, the AUC0-24 [7, 10] was 13000 ng·h/mL, the Cmax [7, 10] was 1020 ng/mL and the AUC0-24 [7, 11] was 20300 ng·h/mL. For the same compound, the Cmax [7, 11] was 1830 ng/mL, the AUC0-24 [7, 12] was 21900 ng·h/mL and the Cmax [7, 12] was 1530 ng/mL. It also gave an AUC0-24 [7, 13] of 36300 ng·h/mL, a Cmax [7, 13] of 3570 ng/mL and an AUC0-24 [7, 14] of 35200 ng·h/mL. It also gave a Cmax [7, 14] of 3130 ng/mL, an AUC0-24 [7, 15] of 2410 ng·h/mL and a Cmax [7, 15] of 276 ng/mL. The AUC0-24 [7, 16] was 2010 ng·h/mL, the Cmax [7, 16] was 276 ng/mL and the AUC0-24 [7, 17] was 8640 ng·h/mL. It also gave a Cmax [7, 17] of 769 ng/mL, an AUC0-24 [7, 18] of 17500 ng·h/mL and a Cmax [7, 18] of 1740 ng/mL. For the same compound, the AUC0-24 [7, 19] was 17800 ng·h/mL, the Cmax [7, 19] was 1450 ng/mL and the AUC0-24 [7, 20] was 26500 ng·h/mL. For the same compound, the Cmax [7, 20] was 2130 ng/mL, the AUC0-24 [7, 21] was 29000 ng·h/mL and the Cmax [7, 21] was 2620 ng/mL. It also gave an NOAEL ([7]; QD×5/week schedule) of 5 mg base/kg/dose, an STD10 ([7]; QD×5/week schedule) greater than 45 mg base/kg/dose and an STD10 ([7]; QOD×3 weekly schedule) greater than 25 mg base/kg/dose.
